Laboratory results published in patent publication US20060270618A1, “Novel pharmaceutical composition of interferon gamma or pirfenidone with molecular diagnostics for the improved treatment of interstitial lung diseases” (priority 2001, published 2006).

Columns and labels:
[1] = system: patients suffering from severe interstitial lung disease (ILD); experiment: Therapy of ILD/IPF patients: gene expression analysis followed by interferon gamma; assay type: in vivo, human
Text: Biopsies were taken from patients suffering from severe interstitial lung disease (ILD), after […] was given, using the surgical method of bronchoscopy. Obtained tissue probes were stored and processed for isolation of total RNA in RNAlater™ (patent pending), an aqueous, non-toxic tissue storage reagent that stabilizes and protects cellular RNA in intact, unfrozen tissue samples.
Analysis of Infectious agents in biopsies. As patients with ILD repeatedly suffer from inflammations, biopsied material was tested for the presence of infectious agents. Most dominant was the observation of underlying Herpes virus infections (treated with Ganciclovir) and various bacterial infections (treated with various antibiotics), or few fungal infections.
Therapy. Therapy with interferon gamma was only started after successful pretreatment of the underlying infections and the assessment of the gene expression of the endogenous disease signiture genes.

[2] = system: patient with histologically proven UIP; experiment: Single patient with histologically proven UIP, CMV pretreatment then interferon gamma (FIG. 1); assay type: in vivo, human; details: failure of immunosuppressive treatment, gene transcription analysis
Text: FIG. 1: FIG. 1 depicts the total lung capacity (TLC), the partial pressure of arterial oxygen (PaO2), and the forced vital capacity (FVC) of a patient with histologically proven UIP (open lung biopsy) and failure of immunosuppressive treatment treated with interferon gamma. FIG. 1b) depicts the total lung capacity (TLC), the partial pressure of arterial oxygen (PaO2), and the forced vital capacity (FVC) of the same patient with histologically proven UIP (open lung biopsy) and failure of immunosuppressive treatment between time #l and time #2.

[3] = system: bleomycin-induced lung collagen fibrosis; details: bleomycin mice; cited from earlier work
TGF-β1 = details: after six months of therapy; cited from earlier work
CTGF = details: after six months of therapy; cited from earlier work
[4] = system: individuals suffering from IPF; details: cited from earlier work
[5] = after pretreatment of infections and gene expression analysis

interferon gamma [naturally occurring glycoprotein cytokine, molecular weight about 17.000, also produced by recombinant techniques]
physical exertion capacity [1, 5]: substantial increase
total lung capacity [1, 5]: statistically highly significant increase
partial pressure of arterial oxygen ([1]; at rest): statistically significant increased
effectiveness in the combination therapy ([1]; dose of 1.0-5.0 μg/kg body weight, 1-5 times per week, parenteral): effective
disease symptoms ([1]; human, in vivo): strong decrease
survival benefit ([1]; patients with IPF): significant survival benefit
clinical outcome of the patient [2]: stabilization of the patient
amount of fibrosis [3]: reduction in the amount of fibrosis
expression of TGF-β1 [3]: reduced expression
transcription of TGF-β1 (TGF-β1): significantly diminished
transcription of CTGF (CTGF): significantly diminished
lung function [4]: improvement of lung function
